Assay results reported in patent US7078169B2 (priority 1999, dated 2006).

Assays:
[1] = test system: yjl105w mutant strain; test: Lovastatin drug disk on yeast lawn, yjl105w mutant vs wild-type; type: cell-based, S. cerevisiae; details: 250 μg on sterile disk, 5×10^6 cells, overnight at 30° C.
Procedure: FIG. 4. Effects of lovastatin on wild-type and YJL105w knockout yeast strains. 10 μl of a 25 mg/ml solution of lovastatin (250 μg) in ethanol was applied to a sterile drug disk on a lawn of yeast (5×10^6 cells, ABY363). The plates were incubated overnight at 30° C.
To test whether YJL105w has a role in isoprenoid metabolism, a yjl105w mutant where the entire ORF was replaced with the kanamycin resistance gene was constructed. Approximately 5×10^6 cells of the yjl105w mutant strain and a wild-type control strain (ABY363, MATα his3Δ1 leu2Δ0 lys2Δ0 ura3Δ0) were plated onto separate non-selective agar plates. The sterol biosynthetic inhibitor lovastatin (250 μg) was applied to a sterile disk on each lawn and the cells were allowed to grow overnight at 30° C.

[2] = test system: HES1 reporter gene; type: cell-based, S. cerevisiae; details: ABY140 (pdr5::KanMX yor1::KanMX) vs ABY11 wild-type
Procedure: To further test the viability of this indicator gene in a high-throughput screen, the regulation of the HES1 reporter was tested in two different strain backgrounds ABY11 (MATa leu2Δ1 ura3-52) is a wild-type strain.
The ABY140 [HES1] strain was used to screen approximately 16,800 chemicals from a combinatorial chemistry library. […] Twenty-four of these chemical were further tested in a secondary screen for the ability to induce four additional indicator (also referred to as reporter) genes whose expression are also coordinately regulated with genes encoding ergosterol biosynthetic enzymes.

[3] = test system: HES1 reporter; details: 384-well array, various concentrations, 30° C., 24 hrs
Procedure: Cells were grown to mid-log phase at 30° C. in casamino acids medium (0 67% yeast nitrogen base, 2% glucose, 2% casamino acids). Cell density was adjusted prior to incubation in various concentrations of drug Arrays were incubated at 30° C. for 24 hrs prior to imaging.

## CC[C@H](C)C(=O)O[C@H]1C[C@@H](C)C=C2C=C[C@H](C)[C@H](CC[C@@H]3C[C@@H](O)CC(=O)O3)[C@H]21 [lovastatin]
[1]
  resistance of yjl105w mutant strain to treatment relative to wild-type control (ABY363): significantly more resistant

## Clc1ccc(COC(Cn2ccnc2)c2ccc(Cl)cc2Cl)cc1 (stereo not shown) [Econazole]
[2]
  sensitivity of HES1 reporter gene induction in ABY140 compared to ABY11: more sensitive
[3]
  induction of the HES1 reporter: specifically induced

## Nc1[nH]c(=O)ncc1F [Flucytosine]
[2]
  sensitivity of HES1 reporter gene induction in ABY140 compared to ABY11: not
